From a melting point compilation (Tetko et al.; mined from patent text by program, amines drawn as free bases though some values may be those of a salt)
Residues, ends and D or L forms follow the SMILES beside them. *: point of attachment. Cbz = O=C(OCc1ccccc1)*; NHPr = CCCN*

SMILES | melting point [°C]
CCOC1=CC2=CCC3C4CCC(=O)C4(C)CCC3C2(C)CC1 (centres undefined) | 146 to 149
CC(=O)Nc1c([N+](=O)[O-])cc(Br)c2c1CCN(C)C2 | 190 to 192
CCOC(=O)c1ccc(-c2nc(COc3ccc(CO)cc3OC)c(C)o2)s1 | 108 to 109
Cc1cc2c(cc1O)C(C)(C)CC1(CC(C)(C)c3cc(OCCCn4nc(CO)cc4C)c(C)cc3O1)O2 (centres undefined) | 217 to 219
CC12Cc3cnn(-c4ccc(F)cc4)c3C=C1CCC1OC3(CC=C12)C(=O)NC(=O)NC3=O (centres undefined) | 235 to 236
CCOc1ccc2c(c1)n(C1CCCCC1)c(=O)n2S(=O)(=O)c1ccc(NC(=O)N(CC)CC)cc1OC | 165
O=C(O)CCCCCCC1=C(C=Cc2ccccc2)C(=O)CC1 | 118 to 120
CCCCNC(=O)c1ccc(S(=O)(=O)NC(=O)c2ccc(C(=O)NCC(=O)OC)nc2)cc1 | 215 to 217
CCCc1cn(C)cc(-c2ccc(Cl)c(C(F)(F)F)c2)c1=O | 141 to 142
CN1CCN(S(=O)(=O)c2ccc(O)cc2)CC1 | 225 to 227
CC(=O)N(Cc1ccc(C(=O)O)cc1)c1ccc2c(c1)C(C)(C)CCC2(C)C | 219 to 223
CCN(CC)CCNC(=S)NC(=O)c1ccccc1 | 54 to 56
COC(=O)c1ccc(CN([C@@H](C)c2ccccc2)S(=O)(=O)c2ccc(Cl)cc2)cc1 | 105 to 106
CC(=O)OCCN(C)CC#CC1=Cc2ccccc2Sc2ccc(Cl)cc21 | 48 to 51
COC(=O)c1ccc2[nH]c(S)nc2n1 | 233 to 234
O=C1CC(=O)CC(c2ccccc2Cl)C1 | 157 to 158
CC(C)(C)c1cc(-c2nc3n(c2SC#N)CCS3)cc(C(C)(C)C)c1O | 178 to 179
CN1CCC(Sc2ccc3[nH]c(=O)n(C)c3c2)CC1 | 196 to 198
CC(=O)Oc1ccc(-c2c(CBr)c3ccc(OC(C)=O)cc3oc2=O)c(OC(C)=O)c1 | 171 to 172
CCC(CC)n1c(N)nc2c(Oc3c(C)cc(C)cc3C)nc(C)cc21 | 208 to 210
CCCCCSc1cccc(-c2nc(=O)c3ccccc3s2)n1 | 105
N#CCCCNc1cccc(/C=C/c2nc3ccccc3s2)c1 | 97 to 98
N#CN(Cc1ccccc1)c1ccccn1 | 65 to 66

SMILES | melting point [°C]
NC(=O)C(CCCC(NC(=O)OCc1ccccc1)C(=O)O)NC(=O)OCc1ccccc1 (centres undefined) | 145 to 150
O=C(Nc1ccc(C(=O)N2Cc3ccccc3Cc3ccccc32)cc1)c1ccccc1Cl | 110 to 115
CCCNC(=O)C1CCCN1C(=O)C(C)NC(=O)OCc1ccccc1 (stereo not drawn) (Cbz-Ala-Pro-NHPr; configuration not given here) | 117 to 120
COc1cc(CNC(=O)c2nc3ccc(F)c(OCCc4ccc(-c5c(O)noc5C)cc4)c3c(=O)[nH]2)ccc1F | 240 to 242
CON=C(C(=O)OC)c1ccccc1COc1ccc(C(C)=NOCc2ccccc2)cc1 | 104 to 106
CCc1cc(NC(=O)N2CCN(c3ccsc3)CC2)c(OC)nc1C | 108 to 110
Cn1cnc(S(=O)(=O)N2CCn3c(c(C(N)=O)c(Cl)c3-c3ccccc3)C2)c1 | 260 to 263
OCCNc1c(Br)cnc2ccccc12 | 163 to 165
Cc1cccc(-c2cc(=O)c(C)c(-c3ccccc3)n2-c2ccccc2F)c1 | 211 to 214
Cc1csc2[nH]cc(C(=O)c3ccc(Cl)cc3)c12 | 223
OC1CSC(Oc2cc(-c3cccnc3)ccc2Cl)C(O)C1O (centres undefined) | 172
NCc1c(CN(Cc2ccccc2)Cc2ccccc2)cccc1C(F)(F)C(F)(F)c1ccccc1 | 172 to 174
CCc1cc2cc(OC)ccc2[nH]1 | 49 to 50
Cc1ccc2sc(-c3ccccc3)c(N(C)C)c2c1 | 89 to 92
CC12CCC3C(CCC4CCCCC43C)C1CC(F)C2=O (centres undefined) | 148 to 150
O=C(CCl)NC(NC(=O)c1ccccc1)C(Cl)(Cl)Cl (centres undefined) | 211 to 213
Cc1nc(Cl)c([N+](=O)[O-])c(NC(C)C)n1 | 77 to 79
CSc1ncc(OCc2cccnc2)c(=O)[nH]1 | 186 to 187
O=S(=O)(CCCN1CCN(c2ncc(F)cn2)CC1)c1ccc(F)cc1 | 132 to 134
O=C(O)COn1cccn1 | 99
CCN1CCCC1CNC(=O)c1cc(N(C)S(=O)(=O)CC)ccc1OC (centres undefined) | 85 to 87
Cc1nc2c3c(c(C(=O)N4CCC4)cc2n1C)CCC(c1ccccc1)O3 (centres undefined) | 241 to 242

Now from value to compound:

melting point [°C] | SMILES
88 to 90 | CCCCNC(=O)[C@@H]1CCCN1C(=O)OCc1ccccc1
309 to 311 | O=C(O)c1cnn2ccc(-c3ccc(Cl)cc3)nc12
187 to 190 | CNc1ccc(C(=O)NCCC(=O)O)cc1[N+](=O)[O-]
99 to 100 | C#Cc1ccc(=O)oc1
198 to 201 | COc1ccc(C2=CNC(=O)NC2)cc1OC1Cc2ccccc2C1
217 to 220 | CCOC(=O)C(=O)c1csc(NC(=O)Nc2ccccc2)n1
121 to 122 | O=C(O)Cc1ccc(Br)cc1F
194 to 195 | C=CCNCCC(=O)O
135 to 137 | COc1cc(NC(=O)CCN2CCCN(CCC(=O)Nc3cc(OC)c(OC)c(OC)c3)CC2)cc(OC)c1OC
77.6 to 78.4 | CC(C)CN1CCN(C(=O)c2ccc(OCc3ccccc3)cc2)CC1
235 to 238 | C=C(F)c1c[nH]c(=O)[nH]c1=O
207 to 208 | CCC(NCCN)(C(=O)O)c1cccc(Cl)c1 (centres undefined)
173 to 175 | CNC(=O)C(S(=O)(=O)CCCl)S(=O)(=O)CCCl
177 to 179 | CN(C)CCNc1ccc([N+](=O)[O-])c2sc3ccccc3c(=O)c12
100 to 103 | COc1ccc(NS(=O)(=O)c2sc3ccc(Cl)cc3c2C)cc1N1CCN(C(=O)OC(C)(C)C)CC1
100 to 101 | CCOC(=O)C=Cc1c(OC)cncc1OC
61 to 65 | C#CCOc1cc(-n2c(=O)nc(N(C)C)n(C)c2=O)c(F)cc1Cl
166 to 168 | CC(C)(C)c1cc(-c2nc(CC(=O)O)co2)cc(C(C)(C)C)c1O
169 to 170 | CC(C)(C)OC(=O)N1CCC(c2noc3c(O)c(F)ccc23)CC1
324 to 326 | Cc1cnc2[nH]cc(/C=C3\N=C(N4CCCCCC4)NC3=O)c2c1

melting point [°C] | SMILES
105 to 107 | CC[C@H]1COC(=O)N1c1nc(-c2ccc(Br)cc2)c(F)s1
108 | COCCn1c(SC)nc(-c2ccc(F)cc2)c1-c1ccnc(Nc2ccccc2)c1
166 to 169 | N#CC(C#N)=CNc1cc(C(F)(F)F)ccc1Cl
164 | Nc1nc(OS(=O)(=O)Cl)nn1C(=O)Oc1ccccc1
119 to 122 | CC=C1C=C(OC)N=C(N)N1
204 to 205 | Cc1cccc2c(=O)nc(-c3cccc(C(=O)OC(C)(C)C)n3)sc12
107 to 108 | CCCCCCc1oc(C=Cc2ccccc2)nc1CC(=O)O
253 | O=C1NC(=O)C(=Cc2ccc(-c3cc(C4CCCCC4)c4oc(C(Cl)(Cl)Cl)nc4c3)nc2)S1
65 to 66 | O=C(c1ccc(Cl)cc1)C1(c2ccccc2Cl)CO1 (centres undefined)
177 | COc1ccc(S(=O)(=O)C(C)(Cc2ccc(-c3ccccc3)cc2)C(=O)NO)cc1 (centres undefined)
275 to 278 | Cc1cc(-c2nncc3c(C(C)(C)C)c(O)nn23)no1
87 to 89 | CC(C)(C#N)c1cc(C(=O)c2cccnc2)cc(C(C)(C)C#N)c1
246 to 247 | Cc1cccc(C(=O)Nc2c[nH]nc2C(=O)NCCC(=O)O)n1
125 to 127 | O=C(Nc1nccs1)C(CC1CCCC1)c1ccc(F)c(C(F)(F)F)c1 (centres undefined)
198 | CCSc1nsc(NC(=O)N(C)C)c1C#N
157 to 159 | COc1ccccc1C(Cn1ccnc1)S(=O)c1ccc(C(=O)O)cc1 (centres undefined)
111 to 112 | CC(C)(C)OC(=O)NCCNC(=O)c1ncsc1-c1cccc(I)c1
85 to 87 | C=CCOC(=O)c1ccc(N=C(OC)c2ccc(OC)c(C34CC5CC(CC(C5)C3)C4)c2)cc1
35 | CC=Cc1cnn(-c2c(Cl)cc(C(F)(F)F)cc2Cl)n1
123 to 124 | Cc1cc(C)nc(NC(=O)Cc2ccsc2)c1

melting point [°C] | SMILES
175 to 177 | Cc1nc(-n2ccc(COc3ccccc3)cc2=O)sc1C(=O)NCc1ccccc1
111 to 115 | N#Cc1cc([N+](=O)[O-])ccc1-c1ccccc1
119 to 120 | CN(C)CCCn1c2c(c3ccccc31)CCS(=O)(=O)CCC2
170 to 172 | COc1ccc(COc2cc3c(cc2-c2cc(C=CC(=O)O)ccc2O)C(C)(C)CCC3(C)C)cc1
143 to 148 | Brc1cc(N2CCOCC2)ccc1/C=C/c1cc(/C=C/c2ccc3cc[nH]c3c2)[nH]n1
134 to 135 | CCOC(=O)c1cn(-c2cc(N)c(F)cc2F)c2c(C)c(F)c(F)c(N)c2c1=O
260 | CC(C)(C)OC(=O)Cn1cc(C[C@@H](N)C(=O)O)c2ccccc21
127 to 129 | COC(=O)c1cc2ccc(C(=O)NC(CO[Si](C)(C)C(C)(C)C)CO[Si](C)(C)C(C)(C)C)cc2[nH]1
131 to 132 | COc1ccc(NC(=O)CCCCC(=O)Cc2ccccc2)cc1
97.6 to 98.6 | CCOC(=O)C1=Cc2cc(Cl)c(F)cc2OC1C(F)(F)F (centres undefined)
142 to 146 | CSc1ccc(-c2c(C(F)(F)F)n(C)[nH]c2=O)cc1
106 to 108 | O=C1CC(C(=O)O)(c2ccc(F)cc2)c2ccccc21 (centres undefined)
53 to 54.5 | O=CN(Cc1ccccc1)Cc1ccccc1
179 to 181 | NC(=O)c1cn(C2CCCC2)nc1N
75 to 77 | COc1nccc(F)c1NC(=O)OC(C)(C)C
168 to 173 | CCCCc1ncc(C(=O)OCC)c(=O)n1Cc1ccc(-c2ccccc2-c2nnn[nH]2)cc1
150 | c1ccn(Nc2ccncc2)c1
109 to 110 | CCCc1nn(-c2ccc(C(F)(F)F)cn2)cc1CCCOc1cccc(CC(=O)O)c1F
279 to 282 | Cc1nc2c(N)nc3ccccc3c2n1Cc1ccccc1
